Tests used:
rape = assay: Test B pre/postemergence rape; type: in vivo, Brassica napus
How it was run: (§1)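 Response is a visual 0-to-10 score relative to untreated plants, where 0 means no effect and 10 means complete control, taken twelve to sixteen days after application. Treatments went onto soil at planting and onto foliage of 1- to 4-leaf plants, using a surfactant-containing non-phytotoxic solvent.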

purple nutsedge = assay: Test B pre/postemergence purple nutsedge; type: in vivo, Cyperus rotundus
How it was run: as §1

bedstraw = assay: Test B pre/postemergence bedstraw; type: in vivo, Galium aparine
How it was run: as §1

wild oat = assay: Test B pre/postemergence wild oat; type: in vivo, Avena fatua
How it was run: as §1

pigweed = assay: Test B pre/postemergence pigweed; type: in vivo, Amaranthus retroflexus
How it was run: as §1

wheat = assay: Test B pre/postemergence wheat; type: in vivo, Triticum aestivum
How it was run: as §1

crabgrass = assay: Test B pre/postemergence crabgrass; type: in vivo, Digitaria sanguinalis
How it was run: as §1

cocklebur = assay: Test B pre/postemergence cocklebur; type: in vivo, Xanthium strumarium
How it was run: as §1

giant foxtail = assay: Test B pre/postemergence giant foxtail; type: in vivo, Setaria faberii
How it was run: as §1

morningglory = assay: Test B pre/postemergence morningglory; type: in vivo, Ipomoea hederacea
How it was run: as §1

velvetleaf = assay: Test B pre/postemergence velvetleaf; type: in vivo, Abutilon theophrasti
How it was run: as §1

corn = assay: Test B pre/postemergence corn; type: in vivo, Zea mays
How it was run: as §1

soybean = assay: Test B pre/postemergence soybean; type: in vivo, Glycine max
How it was run: as §1

surinam grass = assay: Test B pre/postemergence surinam grass; type: in vivo, Brachiaria decumbens
How it was run: as §1

blackgrass = assay: Test B pre/postemergence blackgrass; type: in vivo, Alopecurus myosuroides
How it was run: as §1

[1] = Postemergence, Rate 62 g/ha, scale 0 to 10, 0 is no effect, 10 is complete control
[2] = Postemergence, Rate 250 g/ha, scale 0 to 10, 0 no effect, 10 complete control
[3] = Preemergence, Rate 62 g/ha, scale 0 to 10, 0 is no effect, 10 is complete control
[4] = Preemergence, Rate 125 g/ha, scale 0 to 10 (0 no effect, 10 complete control)
[5] = Preemergence, Rate 250 g/ha, scale of 0 to 10 where 0 is no effect and 10 is complete control
[6] = Preemergence, Rate 500 g/ha, scale 0 (no effect) to 10 (complete control)
[7] = Rate 125 g/ha, Postemergence, scale 0 to 10, 0 no effect, 10 complete control
[8] = Rate 500 g/ha, Postemergence, 0 to 10 scale (0 no effect, 10 complete control)

Cc1ccccc1-n1c(=O)on(C(=O)N(c2ccc([N+](=O)[O-])cc2)C(C)C)c1=O [Compound 44]
Rape plant response rating (rape; [1]): 0
Rape plant response rating (rape; [2]): 0
Plant response rating, Rape (rape; [3]): 0
Plant response rating, Rape (rape; [4]): 0
Plant response rating, Rape (rape; [5]): 0
Rape plant response rating (rape; [6]): 0
Rape plant response rating (rape; [7]): 0
Rape plant response rating (rape; [8]): 0
Nutsedge plant response rating (purple nutsedge; [1]): 0
Nutsedge plant response rating (purple nutsedge; [2]): 0
Plant response rating, Nutsedge (purple nutsedge; [3]): 0
Plant response rating, Nutsedge (purple nutsedge; [4]): 0
Plant response rating, Nutsedge (purple nutsedge; [5]): 0
Nutsedge plant response rating (purple nutsedge; [6]): 0
Nutsedge plant response rating (purple nutsedge; [7]): 0
Nutsedge plant response rating (purple nutsedge; [8]): 0
Bedstraw plant response rating (bedstraw; [1]): 0
Bedstraw plant response rating (bedstraw; [2]): 0
Plant response rating, Bedstraw (bedstraw; [3]): 0
Plant response rating, Bedstraw (bedstraw; [4]): 0
Plant response rating, Bedstraw (bedstraw; [5]): 0
Bedstraw plant response rating (bedstraw; [6]): 0
Bedstraw plant response rating (bedstraw; [7]): 0
Bedstraw plant response rating (bedstraw; [8]): 0
Wild oats plant response rating (wild oat; [1]): 0
Wild oats plant response rating (wild oat; [2]): 0
Plant response rating, Wild oats (wild oat; [4]): 0
Plant response rating, Wild oats (wild oat; [5]): 0
Wild oats plant response rating (wild oat; [6]): 0
Wild oats plant response rating (wild oat; [7]): 0
Redroot pigweed plant response rating (pigweed; [1]): 0
Redroot pigweed plant response rating (pigweed; [2]): 0
Plant response rating, Redroot pigweed (pigweed; [3]): 0
Plant response rating, Redroot pigweed (pigweed; [4]): 0
Plant response rating, Redroot pigweed (pigweed; [5]): 0
Redroot pigweed plant response rating (pigweed; [6]): 0
Redroot pigweed plant response rating (pigweed; [7]): 0
Redroot pigweed plant response rating (pigweed; [8]): 0
Wheat plant response rating (wheat; [1]): 0
Wheat plant response rating (wheat; [2]): 0
Plant response rating, Wheat (wheat; [3]): 0
Plant response rating, Wheat (wheat; [4]): 0
Plant response rating, Wheat (wheat; [5]): 0
Wheat plant response rating (wheat; [6]): 0
Wheat plant response rating (wheat; [7]): 0
Crabgrass plant response rating (crabgrass; [1]): 0
Crabgrass plant response rating (crabgrass; [2]): 0
Plant response rating, Crabgrass (crabgrass; [3]): 0
Plant response rating, Crabgrass (crabgrass; [4]): 0
Plant response rating, Crabgrass (crabgrass; [5]): 0
Crabgrass plant response rating (crabgrass; [6]): 2
Crabgrass plant response rating (crabgrass; [7]): 0
Crabgrass plant response rating (crabgrass; [8]): 0
Cocklebur plant response rating (cocklebur; [1]): 0
Cocklebur plant response rating (cocklebur; [2]): 0
Plant response rating, Cocklebur (cocklebur; [3]): 0
Plant response rating, Cocklebur (cocklebur; [5]): 0
Cocklebur plant response rating (cocklebur; [6]): 0
Cocklebur plant response rating (cocklebur; [7]): 0
Cocklebur plant response rating (cocklebur; [8]): 0
Giant foxtail plant response rating (giant foxtail; [1]): 0
Giant foxtail plant response rating (giant foxtail; [2]): 0
Plant response rating, Giant foxtail (giant foxtail; [3]): 0
Plant response rating, Giant foxtail (giant foxtail; [4]): 0
Plant response rating, Giant foxtail (giant foxtail; [5]): 0
Giant foxtail plant response rating (giant foxtail; [6]): 1
Giant foxtail plant response rating (giant foxtail; [7]): 0
Giant foxtail plant response rating (giant foxtail; [8]): 0
Morningglory plant response rating (morningglory; [1]): 0
Morningglory plant response rating (morningglory; [2]): 0
Plant response rating, Morningglory (morningglory; [3]): 0
Plant response rating, Morningglory (morningglory; [4]): 0
Plant response rating, Morningglory (morningglory; [5]): 0
Morningglory plant response rating (morningglory; [6]): 0
Morningglory plant response rating (morningglory; [7]): 0
Morningglory plant response rating (morningglory; [8]): 1
Velvetleaf plant response rating (velvetleaf; [1]): 0
Velvetleaf plant response rating (velvetleaf; [2]): 0
Plant response rating, Velvetleaf (velvetleaf; [3]): 0
Plant response rating, Velvetleaf (velvetleaf; [4]): 0
Plant response rating, Velvetleaf (velvetleaf; [5]): 0
Velvetleaf plant response rating (velvetleaf; [6]): 0
Velvetleaf plant response rating (velvetleaf; [7]): 0
Corn plant response rating (corn; [1]): 0
Corn plant response rating (corn; [2]): 0
Plant response rating, Corn (corn; [3]): 0
Plant response rating, Corn (corn; [4]): 0
Plant response rating, Corn (corn; [5]): 0
Corn plant response rating (corn; [6]): 0
Corn plant response rating (corn; [7]): 0
Corn plant response rating (corn; [8]): 0
Soybean plant response rating (soybean; [1]): 0
Soybean plant response rating (soybean; [2]): 1
Plant response rating, Soybean (soybean; [3]): 0
Plant response rating, Soybean (soybean; [4]): 0
Plant response rating, Soybean (soybean; [5]): 0
Soybean plant response rating (soybean; [6]): 0
Soybean plant response rating (soybean; [7]): 0
B. signalgrass plant response rating (surinam grass; [1]): 0
B. signalgrass plant response rating (surinam grass; [2]): 0
Plant response rating, B. signalgrass (surinam grass; [3]): 0
Plant response rating, B. signalgrass (surinam grass; [4]): 0
Plant response rating, B. signalgrass (surinam grass; [5]): 0
B. signalgrass plant response rating (surinam grass; [6]): 0
B. signalgrass plant response rating (surinam grass; [7]): 0
B. signalgrass plant response rating (surinam grass; [8]): 0
Blackgrass plant response rating (blackgrass; [1]): 0
Blackgrass plant response rating (blackgrass; [2]): 0
Plant response rating, Blackgrass (blackgrass; [3]): 0
Plant response rating, Blackgrass (blackgrass; [4]): 0
Plant response rating, Blackgrass (blackgrass; [5]): 0
Blackgrass plant response rating (blackgrass; [6]): 1
Blackgrass plant response rating (blackgrass; [7]): 0
Blackgrass plant response rating (blackgrass; [8]): 0
